For test [1], the target named is T1, endogenous kinases and other proteins enriched by Kinobeads from mixed cancer cell lysates (Homo sapiens, UniProt O00444).
T1 construct: endogenous in cells
The test is described as follows: Kinobeads pulldown, full dose-response (eight doses).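 Further: competition with Kinobeads ε after inhibitor preincubation in lysate (5 mg/ml protein) for 45 min at 4 °C, DMSO control, doses 0.3–1,000 nM, label-free LC–MS/MS quantification.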 The note with it: target PLK4. The class given is binding.

The target in test [2] is T2, endogenous kinases and other proteins enriched by Kinobeads from mixed cancer cell lysates (Homo sapiens, UniProt O60285).
T2 construct: endogenous in cells
The description is as above. The note with it: target NUAK1. Type of test: binding.

Test [3] concerns the target T3, endogenous kinases and other proteins enriched by Kinobeads from mixed cancer cell lysates (Homo sapiens, UniProt O94804).
T3 construct: endogenous in cells
The description is as above. To be noted: target STK10. The class given is binding.

Test [4] concerns the target T4, endogenous kinases and other proteins enriched by Kinobeads from mixed cancer cell lysates (Homo sapiens, UniProt O94806).
T4 construct: endogenous in cells
The test is described as above. Type of test: binding. The note with it: target PRKD3.

For test [5], the target named is T5, endogenous kinases and other proteins enriched by Kinobeads from mixed cancer cell lysates (Homo sapiens, UniProt P11274).
T5 construct: endogenous in cells
Described as above. The note with it: target BCR. The class given is binding.

Test [6] addresses T6, endogenous kinases and other proteins enriched by Kinobeads from mixed cancer cell lysates (Homo sapiens, UniProt P27448).
T6 construct: endogenous in cells
Described as above. The note with it: target MARK3. The class given is binding.

Test [7] addresses T7, endogenous kinases and other proteins enriched by Kinobeads from mixed cancer cell lysates (Homo sapiens, UniProt P37173).
T7 construct: endogenous in cells
Described as above. The class given is binding. To be noted: target TGFBR2; read-out: apparent Kd.

Test [8] deals with T8, endogenous kinases and other proteins enriched by Kinobeads from mixed cancer cell lysates (Homo sapiens, UniProt P51946).
T8 construct: endogenous in cells
Described as above. Type of test: binding. To be noted: target CCNH.

Test [9] deals with T9, endogenous kinases and other proteins enriched by Kinobeads from mixed cancer cell lysates (Homo sapiens, UniProt Q12851).
T9 construct: to maximize the representation of endogenous proteins; endogenous in cells
The test is described as above. The class given is binding. To be noted: target MAP4K2.

In test [10] the target is T10, endogenous kinases and other proteins enriched by Kinobeads from mixed cancer cell lysates (Homo sapiens, UniProt Q13043).
T10 construct: endogenous in cells
The description is as above. The class given is binding. To be noted: target STK4.

For test [11], the target named is T11, endogenous kinases and other proteins enriched by Kinobeads from mixed cancer cell lysates (Homo sapiens, UniProt Q13188).
T11 construct: endogenous in cells
The test is described as above. The class given is binding. To be noted: target STK3.

Test [12] addresses T12, endogenous kinases and other proteins enriched by Kinobeads from mixed cancer cell lysates (Homo sapiens, UniProt Q15375).
T12 construct: endogenous in cells
The description is as above. The note with it: target EPHA7. Type of test: binding.

Test [13] has as its target T13, endogenous kinases and other proteins enriched by Kinobeads from mixed cancer cell lysates (Homo sapiens, UniProt Q15831).
T13 construct: endogenous in cells
Described as above. The class given is binding. To be noted: target STK11.

Test [14] has as its target T14, endogenous kinases and other proteins enriched by Kinobeads from mixed cancer cell lysates (Homo sapiens, UniProt Q6ZSR9).
T14 construct: endogenous in cells
The test is described as above. The class given is binding. To be noted: target Q6ZSR9.

For test [15], the target named is T15, endogenous kinases and other proteins enriched by Kinobeads from mixed cancer cell lysates (Homo sapiens, UniProt Q7KZI7).
T15 construct: endogenous in cells
The test is described as above. The class given is binding. To be noted: target MARK2.

For test [16], the target named is T16, endogenous kinases and other proteins enriched by Kinobeads from mixed cancer cell lysates (Homo sapiens, UniProt Q96GD4).
T16 construct: endogenous in cells
Described as above. Type of test: binding. The note with it: target AURKB.

Test [17] has as its target T17, endogenous kinases and other proteins enriched by Kinobeads from mixed cancer cell lysates (Homo sapiens, UniProt Q96L34).
T17 construct: endogenous in cells
The test is described as above. The class given is binding. The note with it: target MARK4.

Test [18] concerns the target T18, endogenous kinases and other proteins enriched by Kinobeads from mixed cancer cell lysates (Homo sapiens, UniProt Q96PY6).
T18 construct: endogenous in cells
Described as above. The note with it: target NEK1. The class given is binding.

In test [19] the target is T19, endogenous kinases and other proteins enriched by Kinobeads from mixed cancer cell lysates (Homo sapiens, UniProt Q9NQS7).
T19 construct: endogenous in cells
The description is as above. The class given is binding. To be noted: target INCENP.

The target of test [20] is T20, endogenous kinases and other proteins enriched by Kinobeads from mixed cancer cell lysates (Homo sapiens, UniProt Q9NSY1).
T20 construct: endogenous in cells
The description is as above. The class given is binding. The note with it: target BMP2K.

Test [21] has as its target T21, endogenous kinases and other proteins enriched by Kinobeads from mixed cancer cell lysates (Homo sapiens, UniProt Q9NWZ3).
T21 construct: endogenous in cells
The description is as above. The class given is binding. To be noted: target IRAK4.

Test [22] deals with T22, endogenous kinases and other proteins enriched by Kinobeads from mixed cancer cell lysates (Homo sapiens, UniProt Q9P289).
T22 construct: endogenous in cells
The test is described as above. The class given is binding. The note with it: target STK26.

In test [23] the target is T23, MAP3K5 (Homo sapiens, UniProt Q99683).
T23 construct: endogenous in cells
The test is described as follows: Kinobeads two-dose competition binding: MAP3K5. To be noted: Drugmatrix - all 2, read-out: apparent Kd MAP3K5.

SMILES strings stand for the structures. Some results are limits rather than exact numbers.

T11 sequence (Q13188 whole entry): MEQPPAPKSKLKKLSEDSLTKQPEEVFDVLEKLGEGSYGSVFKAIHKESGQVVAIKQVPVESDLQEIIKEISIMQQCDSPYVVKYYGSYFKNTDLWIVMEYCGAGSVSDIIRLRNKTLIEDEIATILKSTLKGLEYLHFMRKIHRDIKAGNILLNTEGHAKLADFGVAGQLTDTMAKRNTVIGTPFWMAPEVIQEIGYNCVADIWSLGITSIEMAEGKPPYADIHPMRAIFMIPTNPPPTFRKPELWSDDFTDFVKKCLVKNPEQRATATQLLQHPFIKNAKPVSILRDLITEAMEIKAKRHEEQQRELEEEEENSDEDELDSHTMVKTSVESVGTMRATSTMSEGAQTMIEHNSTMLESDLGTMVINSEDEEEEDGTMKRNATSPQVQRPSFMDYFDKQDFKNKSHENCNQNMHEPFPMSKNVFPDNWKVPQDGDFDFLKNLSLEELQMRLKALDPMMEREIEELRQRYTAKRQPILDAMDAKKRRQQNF
T14 sequence (Q6ZSR9 whole entry): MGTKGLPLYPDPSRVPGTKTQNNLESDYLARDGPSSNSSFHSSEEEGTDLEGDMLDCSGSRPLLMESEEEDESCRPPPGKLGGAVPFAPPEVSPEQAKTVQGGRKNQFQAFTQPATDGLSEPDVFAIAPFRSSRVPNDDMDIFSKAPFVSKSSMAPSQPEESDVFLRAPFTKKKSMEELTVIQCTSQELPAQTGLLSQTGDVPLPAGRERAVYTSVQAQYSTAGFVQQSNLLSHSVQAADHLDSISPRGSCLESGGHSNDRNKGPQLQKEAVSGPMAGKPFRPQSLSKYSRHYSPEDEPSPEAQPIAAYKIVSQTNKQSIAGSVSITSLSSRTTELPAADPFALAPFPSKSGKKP
T4 sequence (O94806 whole entry): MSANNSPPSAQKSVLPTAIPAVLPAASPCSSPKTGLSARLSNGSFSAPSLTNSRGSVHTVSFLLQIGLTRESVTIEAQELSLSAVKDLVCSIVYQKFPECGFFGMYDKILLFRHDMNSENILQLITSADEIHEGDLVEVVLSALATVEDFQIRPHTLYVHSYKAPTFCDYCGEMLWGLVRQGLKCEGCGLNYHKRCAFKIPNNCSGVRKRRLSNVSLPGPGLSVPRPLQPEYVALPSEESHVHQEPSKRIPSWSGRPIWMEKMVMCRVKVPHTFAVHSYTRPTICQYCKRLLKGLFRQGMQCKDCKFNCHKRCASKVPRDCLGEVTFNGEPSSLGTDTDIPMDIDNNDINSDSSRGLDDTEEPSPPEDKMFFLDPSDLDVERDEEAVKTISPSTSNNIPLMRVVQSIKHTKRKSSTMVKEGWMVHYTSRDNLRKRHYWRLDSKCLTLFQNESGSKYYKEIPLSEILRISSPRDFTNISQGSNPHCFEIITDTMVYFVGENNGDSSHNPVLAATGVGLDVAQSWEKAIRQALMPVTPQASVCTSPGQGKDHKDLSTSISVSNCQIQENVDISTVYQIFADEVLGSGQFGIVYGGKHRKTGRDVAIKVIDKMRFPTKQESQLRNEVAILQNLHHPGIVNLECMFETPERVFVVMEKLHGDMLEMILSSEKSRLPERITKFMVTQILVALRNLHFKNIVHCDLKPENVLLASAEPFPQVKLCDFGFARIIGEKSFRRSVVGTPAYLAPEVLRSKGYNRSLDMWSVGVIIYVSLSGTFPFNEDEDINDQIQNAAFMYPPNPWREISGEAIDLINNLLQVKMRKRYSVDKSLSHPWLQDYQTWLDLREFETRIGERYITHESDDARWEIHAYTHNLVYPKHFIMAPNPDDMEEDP
T16 sequence (Q96GD4 whole entry): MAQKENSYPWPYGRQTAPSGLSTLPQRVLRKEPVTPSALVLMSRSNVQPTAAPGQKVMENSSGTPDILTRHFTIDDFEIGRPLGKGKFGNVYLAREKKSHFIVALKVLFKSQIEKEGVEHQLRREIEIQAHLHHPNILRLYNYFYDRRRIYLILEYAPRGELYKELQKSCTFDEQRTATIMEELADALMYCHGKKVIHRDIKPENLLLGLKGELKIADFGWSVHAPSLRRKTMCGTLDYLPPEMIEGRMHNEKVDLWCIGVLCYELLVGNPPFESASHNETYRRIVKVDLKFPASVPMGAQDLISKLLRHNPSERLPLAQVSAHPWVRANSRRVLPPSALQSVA
T22 sequence (Q9P289 whole entry): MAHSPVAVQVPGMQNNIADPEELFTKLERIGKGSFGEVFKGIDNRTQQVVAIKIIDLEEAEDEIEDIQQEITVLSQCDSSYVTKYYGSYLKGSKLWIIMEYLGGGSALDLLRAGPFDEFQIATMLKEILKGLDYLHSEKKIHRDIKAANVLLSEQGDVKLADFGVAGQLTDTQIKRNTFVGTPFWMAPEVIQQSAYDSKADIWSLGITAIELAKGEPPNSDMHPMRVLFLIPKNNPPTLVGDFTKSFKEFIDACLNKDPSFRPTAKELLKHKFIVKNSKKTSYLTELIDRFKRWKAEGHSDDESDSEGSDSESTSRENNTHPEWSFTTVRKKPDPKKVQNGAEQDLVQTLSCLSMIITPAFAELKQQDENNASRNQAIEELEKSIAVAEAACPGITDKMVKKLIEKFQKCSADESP
T10 sequence (Q13043 whole entry): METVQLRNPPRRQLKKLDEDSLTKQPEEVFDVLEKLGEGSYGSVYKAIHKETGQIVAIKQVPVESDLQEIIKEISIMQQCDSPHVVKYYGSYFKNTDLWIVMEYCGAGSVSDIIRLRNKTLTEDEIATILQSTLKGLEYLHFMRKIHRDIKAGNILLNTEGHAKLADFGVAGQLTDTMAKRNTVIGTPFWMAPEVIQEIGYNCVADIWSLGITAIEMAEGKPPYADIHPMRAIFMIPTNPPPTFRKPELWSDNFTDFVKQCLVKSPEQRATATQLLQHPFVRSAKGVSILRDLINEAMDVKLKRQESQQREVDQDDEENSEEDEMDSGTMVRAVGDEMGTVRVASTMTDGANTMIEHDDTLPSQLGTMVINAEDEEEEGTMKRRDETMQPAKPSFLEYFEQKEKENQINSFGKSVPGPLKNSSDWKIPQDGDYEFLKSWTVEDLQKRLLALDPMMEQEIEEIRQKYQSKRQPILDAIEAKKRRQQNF
T21 sequence (Q9NWZ3 whole entry): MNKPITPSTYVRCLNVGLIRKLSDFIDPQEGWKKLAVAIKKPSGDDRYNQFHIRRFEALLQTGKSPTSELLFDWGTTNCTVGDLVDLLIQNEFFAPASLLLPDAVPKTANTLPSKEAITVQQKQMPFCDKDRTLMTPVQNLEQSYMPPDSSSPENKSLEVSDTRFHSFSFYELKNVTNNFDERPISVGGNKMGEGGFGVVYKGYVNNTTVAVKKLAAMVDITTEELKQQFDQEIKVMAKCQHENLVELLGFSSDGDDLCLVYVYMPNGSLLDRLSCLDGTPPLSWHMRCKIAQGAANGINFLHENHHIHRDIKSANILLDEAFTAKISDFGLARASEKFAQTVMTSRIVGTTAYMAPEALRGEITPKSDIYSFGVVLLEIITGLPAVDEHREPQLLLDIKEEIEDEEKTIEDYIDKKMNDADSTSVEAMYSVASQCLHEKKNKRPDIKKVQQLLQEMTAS
T12 sequence (Q15375 28-998): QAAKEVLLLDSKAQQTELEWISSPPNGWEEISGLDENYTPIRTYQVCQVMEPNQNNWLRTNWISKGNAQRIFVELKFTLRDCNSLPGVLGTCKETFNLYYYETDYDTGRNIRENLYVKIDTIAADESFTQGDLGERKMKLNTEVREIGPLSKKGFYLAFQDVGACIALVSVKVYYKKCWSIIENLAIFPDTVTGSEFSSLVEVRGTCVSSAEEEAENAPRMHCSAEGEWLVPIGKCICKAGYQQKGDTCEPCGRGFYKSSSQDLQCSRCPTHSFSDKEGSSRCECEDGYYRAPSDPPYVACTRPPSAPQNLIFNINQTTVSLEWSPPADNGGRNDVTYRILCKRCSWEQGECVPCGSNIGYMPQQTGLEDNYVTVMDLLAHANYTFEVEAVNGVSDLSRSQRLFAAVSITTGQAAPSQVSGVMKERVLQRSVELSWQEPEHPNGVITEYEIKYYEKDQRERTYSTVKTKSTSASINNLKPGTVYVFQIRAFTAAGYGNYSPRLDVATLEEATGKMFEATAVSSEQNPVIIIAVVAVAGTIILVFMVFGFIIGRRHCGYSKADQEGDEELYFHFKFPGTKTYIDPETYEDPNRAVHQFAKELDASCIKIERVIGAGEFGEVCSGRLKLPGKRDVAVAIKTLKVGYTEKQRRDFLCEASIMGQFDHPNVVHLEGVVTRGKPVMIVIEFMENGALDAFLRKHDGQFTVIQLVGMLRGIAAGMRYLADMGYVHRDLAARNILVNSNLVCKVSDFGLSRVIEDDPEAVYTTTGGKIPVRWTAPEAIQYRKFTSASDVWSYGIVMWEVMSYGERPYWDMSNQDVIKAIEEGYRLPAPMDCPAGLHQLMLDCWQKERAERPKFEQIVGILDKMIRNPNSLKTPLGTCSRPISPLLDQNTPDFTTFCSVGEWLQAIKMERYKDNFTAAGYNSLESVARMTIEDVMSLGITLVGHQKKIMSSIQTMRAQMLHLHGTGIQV
T8 sequence (P51946 whole entry): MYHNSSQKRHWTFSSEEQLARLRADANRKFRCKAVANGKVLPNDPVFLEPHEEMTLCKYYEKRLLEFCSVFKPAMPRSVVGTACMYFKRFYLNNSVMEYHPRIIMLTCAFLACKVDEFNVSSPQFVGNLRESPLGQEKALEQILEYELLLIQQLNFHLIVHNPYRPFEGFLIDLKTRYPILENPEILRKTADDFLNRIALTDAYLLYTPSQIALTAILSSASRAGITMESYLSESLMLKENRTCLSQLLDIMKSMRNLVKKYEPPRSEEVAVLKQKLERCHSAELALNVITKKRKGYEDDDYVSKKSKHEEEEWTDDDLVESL

Take `Cn1cc(-c2nc(N[C@@H]3CCCC[C@@H]3N)c(F)c3c2C(=O)NC3)cn1` [TAK659]: the EC50 worked out at 148 nM in [1]; 1020 nM in [2]; 725 nM in [3]; 1410 nM in test [4]; 1020 nM in test [5]; 680 nM in test [6]. The EC50 in [8] came out at 1730 nM; in test [9], 595 nM; in [10] it was 628 nM; in test [11] it was 742 nM; in test [12] it was 810 nM; in [13], 1150 nM. In addition, the EC50 in test [14] was found to be 566 nM; in test [15] it was 837 nM; in test [16], 161 nM; in test [17], 1050 nM; in test [18], 589 nM; in test [19] it was 150 nM. For the same compound, the EC50 in test [20] stood at 537 nM; in test [21], 718 nM; in test [22] it was 363 nM. For the same compound, the Kd in test [1] (read-out: apparent Kd) is 77.2 nM; in test [2] (read-out: apparent Kd), 312 nM; in test [3] (read-out: apparent Kd), 725 nM; in test [4] (read-out: apparent Kd), 1180 nM; in test [5] (read-out: apparent Kd) it was 528 nM; in test [6] (read-out: apparent Kd) it was 670 nM. In addition, the Kd was determined as 2960 nM in test [7]; 1580 nM in test [8] (read-out: apparent Kd); 459 nM in test [9] (read-out: apparent Kd); 567 nM in test [10] (read-out: apparent Kd); 683 nM in test [11] (read-out: apparent Kd); 617 nM in test [12] (read-out: apparent Kd). In addition, the Kd in test [13] (read-out: apparent Kd) was 1150 nM; in test [14] (read-out: apparent Kd), 493 nM; in test [15] (read-out: apparent Kd), 762 nM; in [16] (read-out: apparent Kd), 86.7 nM; in test [17] (read-out: apparent Kd), 1050 nM; in test [18] (read-out: apparent Kd) it was 529 nM. Also, the Kd came out at 150 nM in [19] (read-out: apparent Kd), 456 nM in test [20] (read-out: apparent Kd), 675 nM in test [21] (read-out: apparent Kd) and 275 nM in [22] (read-out: apparent Kd).

Take `CC(C)N1CC(=O)N(C)c2cnc(Nc3cccc(S(=O)(=O)CCN4CCOCC4)c3)nc21` [BI00009348]: the potency estimated from few doses in test [23] is greater than 1000 nM.

The EC50 is the concentration at which the effect is half-maximal.
